Values joined by “and” are separate entries in the source; they are usually repeats but may differ in a detail not shown here. Identical values can stand only once. Toxic doses and inconclusive results are not listed.
Tested on: P388 leukemia ip, CD2F1 mice, survival T/C
Test: NCI In Vivo Anticancer Drug Screen. Data for tumor model P388 Leukemia (intraperitoneal) in CD2F1 (CDF1) mice
Conditions: endpoint: median survival time, higher = longer survival
Procedure, shortened: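 Mice carrying the transplanted tumor received test compound or vehicle. Survival was recorded in each group, and the value is the treated-group measurement divided by that of the vehicle-treated control group.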

[1] = dose: 50.0 mg/kg/injection, schedule: Q01DX009 (ip), vehicle: saline with Tween-80
[2] = dose: 100.0 mg/kg/injection, schedule: Q01DX009 (ip), vehicle: saline with Tween-80
[3] = dose: 50.0 mg/kg/injection, schedule: Q01DX005 (ip), vehicle: Klucel (hydroxypropylcellulose) (HPC)
[4] = dose: 100.0 mg/kg/injection, schedule: Q01DX005 (ip), vehicle: Klucel (hydroxypropylcellulose) (HPC)
[5] = dose: 200.0 mg/kg/injection, schedule: Q01DX005 (ip), vehicle: Klucel (hydroxypropylcellulose) (HPC)
[6] = dose: 60.0 mg/kg/injection, schedule: Q01DX005 (ip), vehicle: saline with Tween-80
[7] = dose: 120.0 mg/kg/injection, schedule: Q01DX005 (ip), vehicle: saline with Tween-80
[8] = dose: 240.0 mg/kg/injection, schedule: Q01DX005 (ip), vehicle: saline with Tween-80

COC1OC(CNC(=O)N(CCCl)N=O)C(O)C(O)C1O (stereo unspecified)
T/C (dose: 1.56 mg/kg/injection, schedule: Q01DX009 (ip), vehicle: saline): 182 % of control
T/C (dose: 3.12 mg/kg/injection, schedule: Q01DX009 (ip), vehicle: saline): 204 % of control
T/C (dose: 3.12 mg/kg/injection, schedule: Q04DX002 (ip), vehicle: saline): 157 % of control
T/C (dose: 6.25 mg/kg/injection, schedule: Q01DX009 (ip), vehicle: saline): 248 % of control
T/C (dose: 6.25 mg/kg/injection, schedule: Q04DX002 (ip), vehicle: saline): 212 % of control
T/C (dose: 10.0 mg/kg/injection, schedule: Q04DX002 (ip), vehicle: saline): 278 % of control
T/C (dose: 12.5 mg/kg/injection, schedule: Q01DX009 (ip), vehicle: saline): 263 % of control
T/C (dose: 12.5 mg/kg/injection, schedule: Q04DX002 (ip), vehicle: saline): 277 % of control
T/C (dose: 20.0 mg/kg/injection, schedule: Q04DX002 (ip), vehicle: saline): 288 % of control
T/C (dose: 25.0 mg/kg/injection, schedule: Q04DX002 (ip), vehicle: saline): 222 % of control
T/C (dose: 40.0 mg/kg/injection, schedule: Q04DX002 (ip), vehicle: saline): 86 % of control

CC(=O)CC(=NC(C)(C)C)Nc1ncc(Cl)c2ccccc12
T/C (dose: 50.0 mg/kg/injection, schedule: Q01DX005 (ip), vehicle: saline with Tween-80): 94 % of control
T/C (dose: 100.0 mg/kg/injection, schedule: Q01DX005 (ip), vehicle: saline with Tween-80): 92 % of control
T/C (dose: 200.0 mg/kg/injection, schedule: Q01DX005 (ip), vehicle: saline with Tween-80): 97 % of control

Oc1ccccc1C=Nc1ccccc1C(F)(F)F
T/C [1]: 101 % of control
T/C [2]: 103 % of control
T/C (dose: 200.0 mg/kg/injection, schedule: Q01DX009 (ip), vehicle: saline with Tween-80): 95 % of control
T/C (dose: 400.0 mg/kg/injection, schedule: Q01DX009 (ip), vehicle: saline with Tween-80): 97 % of control

CC(C)CC(NCCC#N)C(=O)O (stereo unspecified)
T/C [3]: 105 % of control
T/C [4]: 105 % of control
T/C [5]: 108 % of control

COC(=O)/C(=C/c1ccc(/C=C(/C(=O)O)c2ccc(OC)cc2)o1)c1ccccc1
T/C [6]: 97 % of control
T/C [7]: 100 % of control
T/C [8]: 90 % of control

CNC(=O)OC(C)C1CCCCC1OC(=O)NC (stereo unspecified)
T/C (dose: 50.0 mg/kg/injection, schedule: Q01DX005 (ip), vehicle: saline): 100 % of control
T/C (dose: 100.0 mg/kg/injection, schedule: Q01DX005 (ip), vehicle: saline): 106 % of control
T/C (dose: 200.0 mg/kg/injection, schedule: Q01DX005 (ip), vehicle: saline): 100 % of control

CCCCCCCCCCCC(=O)OCCN1CCN(CCCN2c3ccccc3Sc3ccc(C(F)(F)F)cc32)CC1
T/C (dose: 0.78 mg/kg/injection, schedule: Q01DX009 (ip), vehicle: saline with Tween-80): 108 % of control
T/C (dose: 1.56 mg/kg/injection, schedule: Q01DX009 (ip), vehicle: saline with Tween-80): 104 % of control
T/C (dose: 3.12 mg/kg/injection, schedule: Q01DX009 (ip), vehicle: saline with Tween-80): 105 % of control and 93 % of control
T/C (dose: 6.25 mg/kg/injection, schedule: Q01DX009 (ip), vehicle: saline with Tween-80): 107 % of control
T/C (dose: 12.5 mg/kg/injection, schedule: Q01DX009 (ip), vehicle: saline with Tween-80): 101 % of control and 107 % of control
T/C (dose: 25.0 mg/kg/injection, schedule: Q01DX009 (ip), vehicle: saline with Tween-80): 106 % of control
T/C [1]: 114 % of control
T/C [2]: 97 % of control

CCCCCCCCCCCN(CCCCCCCCCCC)CC(O)c1cc2c(c3ccccc13)CCCC2 (stereo unspecified)
T/C [3]: 98 % of control
T/C [4]: 100 % of control
T/C [5]: 96 % of control

Nc1cc(S(=O)(=O)O)c(Br)c(Br)c1Br
T/C (dose: 50.0 mg/kg/injection, schedule: Q01DX009 (ip), vehicle: saline): 94 % of control
T/C (dose: 100.0 mg/kg/injection, schedule: Q01DX009 (ip), vehicle: saline): 95 % of control
T/C (dose: 200.0 mg/kg/injection, schedule: Q01DX009 (ip), vehicle: saline): 90 % of control

CCNc1ncnc2c1cnn2C
T/C (dose: 25.0 mg/kg/injection, schedule: Q01DX009 (ip), vehicle: saline sonified): 109 % of control
T/C (dose: 50.0 mg/kg/injection, schedule: Q01DX009 (ip), vehicle: saline sonified): 113 % of control
T/C (dose: 50.0 mg/kg/injection, schedule: Q04DX003 (ip), vehicle: saline sonified): 112 % of control
T/C (dose: 100.0 mg/kg/injection, schedule: Q04DX003 (ip), vehicle: saline sonified): 104 % of control
T/C (dose: 200.0 mg/kg/injection, schedule: Q04DX003 (ip), vehicle: saline sonified): 116 % of control

CNC(=O)OCc1c(COC(=O)NC)c2n(c1C)-c1ccc(OC)cc1CCC2
T/C (dose: 7.5 mg/kg/injection, schedule: Q01DX005 (ip), vehicle: Klucel (hydroxypropylcellulose) (HPC)): 119 % of control
T/C (dose: 15.0 mg/kg/injection, schedule: Q01DX005 (ip), vehicle: Klucel (hydroxypropylcellulose) (HPC)): 122 % of control

COC(=O)c1nc2c(c(=O)n(C)c(=O)n2C)n1C
T/C [6]: 94 % of control
T/C [7]: 96 % of control
T/C [8]: 89 % of control

From PubChem BioAssay AID330 (DTP/NCI, 2004)
